Values of other authors, collected in patent US20060229344A1, “Method of treating amyotrophic lateral sclerosis” (priority 2005, published 2006).

Columns and labels:
[1] = in vivo
[2] = in vivo; remark: listed apart in the source

absorption after oral administration: well absorbed
SMILES: Cc1cc(CCCOc2c(C)cc(-c3noc(C(F)(F)F)n3)cc2C)on1 [VP 63843, 3-[3,5-dimethyl-4-[[3-(3-methyl-5-isoxazolyl)propyl]oxy]phenyl]-5-(trifluoromethyl)-1,2,4-oxadiazole]
crossing into the central nervous system and gray matter [1]: crosses readily into the central nervous system and into gray matter
side-effects [2]: few side-effects
tolerability [2]: well tolerated
toxicity [2]: little toxicity
